In patent US20240199542A1, “SUBSTITUTED PYRROLIDIN-2-ONES, SALTS THEREOF AND THEIR USE AS HERBICIDALLY ACTIVE SUBSTANCES” (Bayer Aktiengesellschaft, priority 2021, published 2024):

Legend:
Assay type in all cases: in vivo
[1] = tested on: Polygonum convolvulus (POLCO); assay: Herbicidal post-emergence action; settings: assessed after ca. 3 weeks
Source text: (§1) Seeds of mono- and dicotyledonous weed plants and crop plants were sown, in plastic or organic planting pots, in sandy loam, covered with soil and grown in a greenhouse under controlled growth conditions. 2 to 3 weeks after sowing, the test plants were sprayed in the single-leaf stage. The compounds according to the invention, formulated in form of wettable powders (WP) or as emulsifiable concentrates (EC), were sprayed onto the green plant parts as aqueous suspension or emulsion, with the addition of 0.5% of an additive, at an application rate of 600 1 of water/ha (converted). The test plants were placed in the greenhouse for ca. 3 weeks under optimum growth conditions, and then the effect of the preparations was assessed visually in comparison with untreated controls (herbicidal effect in percent (%): 100% effect=plants have died off, 0% effect=as control plants).
(§2) Tables B1 to B16 below show the effects of selected compounds of the general formula (I) according to table 1 on various harmful plants and an application rate corresponding to 1280 g/ha or 320 g/ha obtained by the experimental procedure mentioned above.

Avena fatua (AVEFA) [2] = assay: Herbicidal post-emergence action; settings: assessed after ca. 3 weeks
Source text: as §1, §2

[3] = tested on: Lolium multiflorum (LOLMU); assay: Herbicidal post-emergence action; settings: assessed after ca. 3 weeks
Source text: as §1, §2

[4] = tested on: Echinochloa crus-galli (ECHCG); assay: Herbicidal post-emergence action; settings: assessed after ca. 3 weeks
Source text: as §1, §2

[5] = tested on: Alopecurus myosuroides (ALOMY); assay: Herbicidal post-emergence action; settings: assessed after ca. 3 weeks
Source text: as §1, §2

Avena fatua (AVEFA) [6] = assay: Herbicidal pre-emergence action; settings: graded after ca. 3 weeks
Source text: (§3) Seeds of mono- and dicotyledonous weed plants and crop plants were sown, in plastic or organic planting pots, in sandy loam and covered with soil. The compounds according to the invention, formulated in the form of wettable powders (WP) or as emulsifiable concentrates (EC), were applied to the surface of the covering soil as aqueous suspension or emulsion, with the addition of 0.5% of an additive, at an application rate of 600 1 of water/ha (converted).
(§4) Following treatment, the pots were placed in a greenhouse and kept under optimum growth conditions for the test plants. The visual grading of the damage to the test plants was carried out after ca. 3 weeks in comparison to untreated controls (herbicidal effect in percent (%): 100% effect=plants have died off, 0% effect=as control plants).
(§5) Tables A1 to A16, below, show the effects of selected compounds of the general formula (I) according to table 1 on various harmful plants and an application rate corresponding to 1280 g/ha or lower obtained by the experimental procedure mentioned above.

Setaria viridis (SETVI) [7] = assay: Herbicidal pre-emergence action; settings: 1280 g/ha, graded after ca. 3 weeks
Source text: as §3, §4, §5

[8] = tested on: Cyperus esculentus (CYPES); assay: Herbicidal pre-emergence action; settings: graded after ca. 3 weeks
Source text: as §3, §4, §5

[9] = tested on: Lolium multiflorum (LOLMU); assay: Herbicidal pre-emergence action; settings: 1280 g/ha, graded after ca. 3 weeks
Source text: as §3, §4, §5

[10] = tested on: Echinochloa crus-galli (ECHCG); assay: Herbicidal pre-emergence action; settings: 1280 g/ha, graded after ca. 3 weeks
Source text: as §3, §4, §5

[11] = tested on: Alopecurus myosuroides (ALOMY); assay: Herbicidal pre-emergence action; settings: graded after ca. 3 weeks
Source text: as §3, §4, §5

Setaria viridis (SETVI) [12] = assay: Herbicidal post-emergence action; settings: 1280 g/ha, assessed after ca. 3 weeks
Source text: as §1, §2

Veronica persica (VERPE) = assay: Herbicidal pre-emergence action; settings: graded after ca. 3 weeks
Source text: as §3, §4, §5

[13] = tested on: Digitaria sanguinalis (DIGSA); assay: Herbicidal post-emergence action; settings: 320 g/ha, assessed after ca. 3 weeks
Source text: as §1, §2

Viola tricolor (VIOTR) = assay: Herbicidal pre-emergence action; settings: graded after ca. 3 weeks
Source text: as §3, §4, §5

[14] = tested on: Digitaria sanguinalis (DIGSA); assay: Herbicidal pre-emergence action; settings: 320 g/ha, graded after ca. 3 weeks
Source text: as §3, §4, §5

[15] = tested on: Polygonum convolvulus (POLCO); assay: Herbicidal pre-emergence action; settings: graded after ca. 3 weeks
Source text: as §3, §4, §5

Brassica napus (BRSNW) = assay: Post-emergence effects on crop plants; settings: application rate 320 g/ha, crop plant Brassica napus (BRSNW)
Source text: as §1
Tables D1 to D3 below show the effects of selected compounds of the general formula (I) according to table 1 on various crop plants and an application rate corresponding to 320 g/ha or below obtained by the experimental procedure mentioned above in biology section B.

Lolium rigidum (LOLRI) = assay: Herbicidal pre-emergence action; settings: 320 g/ha, graded after ca. 3 weeks
Source text: as §3, §4, §5

| Compound | Post-emergence activity against POLCO ([1]; 1280 g/ha) | Post-emergence activity against AVEFA (Avena fatua (AVEFA) [2]; 1280 g/ha) | Post-emergence activity against LOLMU ([3]; 1280 g/ha) | Post-emergence activity against ECHCG ([4]; 1280 g/ha) | Post-emergence activity against ALOMY ([5]; 1280 g/ha) | Pre-emergence activity against AVEFA (Avena fatua (AVEFA) [6]; 1280 g/ha) | Pre-emergence activity against SETVI (Setaria viridis (SETVI) [7]) | Pre-emergence activity against LOLMU [9] | Pre-emergence activity against ECHCG [10] | Pre-emergence activity against ALOMY ([11]; 1280 g/ha) | further results |
| --- | --- | --- | --- | --- | --- | --- | --- | --- | --- | --- | --- |
| CCCNC(=O)CC1CCC(=O)N1Cc1cccc(F)c1F (racemic) [Example I-110] | 80% |  |  |  |  |  |  |  |  |  |  |
| C=CCCOC(=O)CC1CCC(=O)N1Cc1cccc(F)c1F (racemic) [Example I-026] | 80% | 90% | 80% | 80% | 80% | 100% | 80% | 90% | 90% | 90% | Pre-emergence activity against CYPES ([8]; 1280 g/ha): 90% |
| C#CCOC(=O)CC1CCC(=O)N1Cc1cccc(F)c1F (racemic) [Example I-023] |  | 80% | 80% | 90% | 80% | 100% | 90% | 80% | 80% | 90% | Post-emergence activity against SETVI (Setaria viridis (SETVI) [12]): 80%; Pre-emergence activity against VERPE (Veronica persica (VERPE); 1280 g/ha): 80%; Pre-emergence activity against CYPES ([8]; 1280 g/ha): 80% |
| COC(=O)[C@H](Cc1c[nH]cn1)NC(=O)CC1CCC(=O)N1Cc1cccc(F)c1F (single isomer, unassigned) [Example I-037] | 80% | 90% |  |  | 80% | 100% | 90% | 90% | 90% | 90% | Pre-emergence activity against CYPES ([8]; 1280 g/ha): 100% |
| O=C(CC1CCC(=O)N1Cc1cccc(F)c1F)NN1CCCC1 (stereo not shown) [Example I-200, 2-[1-[(2,3-difluorophenyl)methyl]-5-oxo-pyrrolidin-2-yl]-N-(pyrrolidin-1-yl)acetamide] |  |  |  |  |  |  |  |  |  |  | Post-emergence activity against AVEFA (Avena fatua (AVEFA) [2]; 320 g/ha): 80%; Post-emergence activity against DIGSA [13]: 80%; Post-emergence activity against ALOMY ([5]; 320 g/ha): 80%; Pre-emergence activity against AVEFA (Avena fatua (AVEFA) [6]; 320 g/ha): 100%; Pre-emergence activity against VIOTR (Viola tricolor (VIOTR); 320 g/ha): 80%; Pre-emergence activity against DIGSA [14]: 80%; Pre-emergence activity against POLCO ([15]; 320 g/ha): 90% |
| Cc1ccc(OCCOC(=O)CC2CCC(=O)N2Cc2cccc(F)c2F)cc1 (stereo not shown) [Example I-034, 2-(4-methylphenoxy)ethyl 2-[1-[(2,3-difluorophenyl)methyl]-5-oxo-pyrrolidin-2-yl]acetate] | 80% |  | 90% | 90% | 80% | 100% |  |  | 80% | 90% | Post-emergence activity against SETVI (Setaria viridis (SETVI) [12]): 80%; Pre-emergence activity against VERPE (Veronica persica (VERPE); 1280 g/ha): 100% |
| COC(=O)C(C(=O)CC1CCC(=O)N1Cc1cccc(F)c1F)C(=O)OC (racemic) [Example I-176] | 90% | 80% | 80% | 90% | 90% | 100% |  | 90% | 90% | 90% | Post-emergence activity against SETVI (Setaria viridis (SETVI) [12]): 80%; Pre-emergence activity against POLCO ([15]; 1280 g/ha): 80% |
| O=C(CC1CCC(=O)N1Cc1cccc(F)c1F)N1CCCC1 (racemic) [Example I-071] | 80% | 80% |  |  |  | 90% |  |  |  | 80% | Pre-emergence activity against POLCO ([15]; 1280 g/ha): 80% |
| O=C(CC1CCC(=O)N1Cc1cccc(F)c1F)OC1CCCC1 (racemic) [Example I-017] | 80% | 90% |  | 90% | 80% | 100% | 90% | 80% | 90% | 90% | Pre-emergence activity against POLCO ([15]; 1280 g/ha): 80% |
| COc1ccc(SCCOC(=O)CC2CCC(=O)N2Cc2cccc(F)c2F)cc1 (racemic) [Example I-040] | 80% |  | 80% | 80% | 90% | 90% |  |  | 80% | 90% | Pre-emergence activity against VERPE (Veronica persica (VERPE); 1280 g/ha): 90%; Pre-emergence activity against CYPES ([8]; 1280 g/ha): 80% |
| O=C(CC1CCC(=O)N1Cc1cccc(F)c1F)Nc1nnc(C(F)F)s1 (racemic) [Example I-195] |  |  |  |  |  |  |  |  |  |  | Pre-emergence activity against VIOTR (Viola tricolor (VIOTR); 320 g/ha): 80% |
| Cc1cccc(CN2C(=O)CCC2CC(=O)O)c1C (racemic) [Example I-194] |  |  |  |  |  |  |  |  |  |  | Post-emergence activity against DIGSA [13]: 90% |
| Cc1ccc(SCCOC(=O)CC2CCC(=O)N2Cc2cccc(F)c2F)cc1 (racemic) [Example I-041] |  |  |  |  |  |  |  |  |  |  | Post-emergence activity against LOLMU ([3]; 320 g/ha): 80%; Post-emergence activity against ECHCG ([4]; 320 g/ha): 90%; Post-emergence activity against ALOMY ([5]; 320 g/ha): 80%; Post-emergence activity against POLCO ([1]; 320 g/ha): 80%; Pre-emergence activity against AVEFA (Avena fatua (AVEFA) [6]; 320 g/ha): 90%; Pre-emergence activity against VERPE (Veronica persica (VERPE); 320 g/ha): 90%; Pre-emergence activity against ALOMY ([11]; 320 g/ha): 80% |
| O=C(CC1CCC(=O)N1Cc1cccc(F)c1F)OCCOc1ccccc1 (racemic) [Example I-027] |  |  |  |  |  |  |  |  |  |  | Post-emergence activity against LOLMU ([3]; 320 g/ha): 80%; Post-emergence activity against ECHCG ([4]; 320 g/ha): 90%; Post-emergence activity against POLCO ([1]; 320 g/ha): 80%; Pre-emergence activity against AVEFA (Avena fatua (AVEFA) [6]; 320 g/ha): 90%; Pre-emergence activity against CYPES ([8]; 320 g/ha): 80%; Pre-emergence activity against ALOMY ([11]; 320 g/ha): 80% |
| O=C(O)CC1CCC(=O)N1Cc1cccc(F)c1F (stereo not shown) [Example I-003, 2-[1-[(2,3-difluorophenyl)methyl]-5-oxo-pyrrolidin-2-yl]acetic acid] | 80% | 90% | 90% | 90% | 90% | 90% | 80% | 90% | 80% | 90% | post-emergence activity against BRSNW (Brassica napus (BRSNW)): 0%; Post-emergence activity against SETVI (Setaria viridis (SETVI) [12]): 80%; Pre-emergence activity against VIOTR (Viola tricolor (VIOTR); 1280 g/ha): 90%; Pre-emergence activity against LOLRI (Lolium rigidum (LOLRI)): 80%; Pre-emergence activity against DIGSA [14]: 90%; Pre-emergence activity against POLCO ([15]; 1280 g/ha): 90% |
